In patent publication US9365582B2, “Macrocyclic inhibitors of hepatitis C virus” (Janssen Sciences Ireland UC, priority 2006, dated 2016):

Columns and labels:
HCV NS3/4A protease = HCV NS3/4A protease (Hepatitis C virus genotype 1a (isolate H77) (HCV), UniProt P27958); test: Inhibition assay (enzymatic assay) of full-length NS3 protease with NS4A cofactor; assay type: biochemical; details: full-length NS3 1 nM, 25 μM NS4A cofactor, 0.5 μM depsipeptide substrate, 30° C., competitive inhibition model
Procedure: The aim of this in vitro assay was to measure the inhibition of HCV NS3/4A protease complexes by the compounds of the present invention.
Inhibitors were dissolved in DMSO, sonicated for 30 sec and vortexed. The solutions were stored at −20° C. between measurements.
The final concentration of DMSO in the assay sample was adjusted to 3.3%. […] A minimum of two replicates was performed for all measurements.

[1] = test system: HCV replicons (Huh-7 luc/neo cells, NS3-NS5B regions of HCV type 1b); test: Replicon assay (Huh-Luc cells, luciferase readout); assay type: cell-based; details: Hepatitis C virus, Huh-7, 72 h, read-out: EC50 (μM) Replicon assay
From the text: This model, while not a complete infection model for HCV, currently is widely accepted as an efficacious model of autonomous HCV RNA replication. […] It will be appreciated that it is important to distinguish between compounds that specifically interfere with HCV functions from those that exert cytotoxic or cytostatic effects in the HCV replicon model, and as a consequence cause a decrease in HCV RNA or linked reporter enzyme concentration. Assays are known in the field for the evaluation of cellular cytotoxicity based for example on the activity of mitochondrial enzymes using fluorogenic redox dyes such as resazurin. Furthermore, cellular counter screens exist for the evaluation of non-selective inhibition of linked reporter gene activity, such as firefly luciferase.
The compounds of formula (I) were examined for activity in the inhibition of HCV RNA replication in a cellular assay. […] In essence, the method was as follows.
The assay utilized the stably transfected cell line Huh-7 luc/neo (hereafter referred to as Huh-Luc). This cell line harbors an RNA encoding a bicistronic expression construct comprising the wild type NS3-NS5B regions of HCV type 1b translated from an internal ribosome entry site (IRES) from encephalomyocarditis virus (EMCV), preceded by a reporter portion (FfL-luciferase), and a selectable marker portion (neo^R, neomycine phosphotransferase). The construct is bordered by 5′ and 3′ NTRs (non-translated regions) from HCV type Ib. Continued culture of the replicon cells in the presence of G418 (neo^R) is dependent on the replication of the HCV RNA. The stably transfected replicon cells that express HCV RNA, which replicates autonomously and to high levels, encoding inter alia luciferase, were used for screening the antiviral compounds.
The replicon cells were plated in 384 well plates in the presence of the test and control compounds which were added in various concentrations. Following an incubation of three days, HCV replication was measured by assaying luciferase activity (using standard luciferase assay substrates and reagents and a Perkin Elmer ViewLux™ ultraHTS microplate imager). […] The inhibitory activity of the compound on luciferase activity was monitored on the Huh-Luc cells, enabling a dose-response curve for each test compound.

Chain of HCV NS3/4A protease (P27958 1027-1657): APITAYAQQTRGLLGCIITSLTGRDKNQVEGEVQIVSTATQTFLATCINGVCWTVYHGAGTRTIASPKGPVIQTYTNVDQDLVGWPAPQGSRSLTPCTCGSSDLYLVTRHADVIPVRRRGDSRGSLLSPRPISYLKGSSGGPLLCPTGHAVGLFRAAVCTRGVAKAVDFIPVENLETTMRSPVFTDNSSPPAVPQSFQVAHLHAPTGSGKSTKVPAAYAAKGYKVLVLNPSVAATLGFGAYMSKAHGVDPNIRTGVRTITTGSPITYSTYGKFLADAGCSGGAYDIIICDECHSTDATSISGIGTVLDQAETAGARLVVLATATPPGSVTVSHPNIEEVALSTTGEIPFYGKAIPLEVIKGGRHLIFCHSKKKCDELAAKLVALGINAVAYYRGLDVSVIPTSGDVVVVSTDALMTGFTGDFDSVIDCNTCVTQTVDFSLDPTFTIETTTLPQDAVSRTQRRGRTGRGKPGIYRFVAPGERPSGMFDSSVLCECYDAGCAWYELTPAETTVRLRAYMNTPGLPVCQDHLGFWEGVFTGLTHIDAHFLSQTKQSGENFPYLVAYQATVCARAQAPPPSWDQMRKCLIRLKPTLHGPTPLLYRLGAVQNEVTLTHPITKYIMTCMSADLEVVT

| SMILES | Ki (HCV NS3/4A protease) | EC50 [1] |
| --- | --- | --- |
| CCOc1cc(O[C@@H]2C[C@H]3C(=O)N[C@]4(C(=O)O)C[C@H]4/C=C\CCCCN(C)C(=O)[C@@H]3C2)c2ccc(OC)cc2n1 [Compound 4, 17-[2-ethoxy-7-methoxyquinolin-4-yloxy]-13-methyl-2,14-dioxo-3,13-diazatricyclo[13.3.0.0^4,6]octadec-7-ene-4-carboxylic acid] | 0.046 µM | 4.26 µM |
| CCOc1cc(O[C@@H]2C[C@H]3C(=O)N[C@]4(C(=O)NS(=O)(=O)C5CC5)C[C@H]4/C=C\CCCCN(C)C(=O)[C@@H]3C2)c2ccc(OC)cc2n1 [Compound 5, N-[17-[2-ethoxy-7-methoxyquinolin-4-yloxy]-13-methyl-2,14-dioxo-3,13-diazatricyclo[13.3.0.0^4,6]octadec-7-ene-4-carbonyl](cyclopropyl)-sulfonamide] | 0.0001 µM | 0.014 µM |
| CCOc1cc(O[C@@H]2C[C@H]3C(=O)N[C@]4(C(=O)NS(=O)(=O)C5CC5)C[C@H]4/C=C\CCCCN(C)C(=O)[C@@H]3C2)c2ccc(OC)c(Br)c2n1 [Compound 7, N-[17-[8-bromo-2-ethoxy-7-methoxyquinolin-4-yloxy]-13-methyl-2,14-dioxo-3,13-diazatricyclo[13.3.0.0^4,6]octadec-7-ene-4-carbonyl](cyclo-propyl)sulfonamide] | 0.0001 µM | 0.0035 µM |
| CCOc1cc(O[C@@H]2C[C@H]3C(=O)N[C@]4(C(=O)NS(=O)(=O)C5CC5)C[C@H]4/C=C\CCCCN(C)C(=O)[C@@H]3C2)c2ccc3c(c2n1)CCO3 [Compound 9, N-[17-[2-ethoxy-8,9-dihydrofuro[2,3-h]quinolin-4-yloxy]-13-methyl-2,14-dioxo-3,13-diazatricyclo[13.3.0.0^4,6]octadec-7-ene-4-carbonyl](cyclo-propyl)sulfonamide] | 0.0008 µM | 0.029 µM |
| CCOc1cc(O[C@@H]2C[C@H]3C(=O)N[C@]4(C(=O)O)C[C@H]4/C=C\CCCCN(C)C(=O)[C@@H]3C2)c2cccc(Cl)c2n1 [Compound 10, 17-[8-chloro-2-ethoxyquinolin-4-yloxy]-13-methyl-2,14-dioxo-3,13-diazatricyclo[13.3.0.0^4,6]octadec-7-ene-4-carboxylic acid] | 0.0077 µM | 3.81 µM |
| CCOc1cc(O[C@@H]2C[C@H]3C(=O)N[C@]4(C(=O)NS(=O)(=O)C5CC5)C[C@H]4/C=C\CCCCN(C)C(=O)[C@@H]3C2)c2cccc(Cl)c2n1 [Compound 11, N-[17-[8-chloro-2-ethoxyquinolin-4-yloxy]-13-methyl-2,14-dioxo-3,13-diazatricyclo[13.3.0.0^4,6]octadec-7-ene-4-carbonyl](cyclopropyl)-sulfonamide] | 0.0005 µM | 0.0063 µM |
| CCOc1cc(O[C@@H]2C[C@H]3C(=O)N[C@]4(C(=O)O)C[C@H]4/C=C\CCCCN(C)C(=O)[C@@H]3C2)c2cccc(C)c2n1 [Compound 12, 17-[2-ethoxy-8-methylquinolin-4-yloxy]-13-methyl-2,14-dioxo-3,13-diazatricyclo[13.3.0.0^4,6]octadec-7-ene-4-carboxylic acid] | 0.017 µM | 7.5 µM |
| CCOc1cc(O[C@@H]2C[C@H]3C(=O)N[C@]4(C(=O)NS(=O)(=O)C5CC5)C[C@H]4/C=C\CCCCN(C)C(=O)[C@@H]3C2)c2cccc(C)c2n1 [Compound 13, N-[17-[2-ethoxy-8-methylquinolin-4-yloxy]-13-methyl-2,14-dioxo-3,13-diazatricyclo[13.3.0.0^4,6]octadec-7-ene-4-carbonyl](cyclopropyl)-sulfonamide] | 0.0001 µM | 0.014 µM |
| CCOc1cc(O[C@@H]2C[C@H]3C(=O)N[C@]4(C(=O)O)C[C@H]4/C=C\CCCCN(C)C(=O)[C@@H]3C2)c2ccc3c(c2n1)OCO3 [Compound 14, 17-[8-ethoxy[1,3]dioxolo[4,5-h]quinolin-6-yloxy]-13-methyl-2,14-dioxo-3,13-diazatricyclo[13.3.0.0^4,6]octadec-7-ene-4-carboxylic acid] | 0.058 µM | 3.3 µM |
| CCOc1cc(O[C@@H]2C[C@H]3C(=O)N[C@]4(C(=O)NS(=O)(=O)C5CC5)C[C@H]4/C=C\CCCCN(C)C(=O)[C@@H]3C2)c2ccc3c(c2n1)OCO3 [Compound 15, N-[17-[8-ethoxy[1,3]dioxolo[4,5-h]quinolin-6-yloxy]-13-methyl-2,14-dioxo-3,13-diazatricyclo[13.3.0.0^4,6]octadec-7-ene-4-carbonyl]-(cyclo-propyl)sulfonamide] | 0.0002 µM | 0.0035 µM |
